Experimental data published in US8940313B2, “Tyrosine-based prodrugs of antiviral agents” (priority 2010, dated 2015).
pIC50: −log10 of the molar value. Several values for one entry are separate records, joined by “and”; a condition that tells them apart may be missing. Identical values can stand only once. Like-named read-outs stand apart in the source and are kept apart here.

Columns and labels:
[1] = Enzymatic stability: hydrolysis in rat intestinal homogenate, pH 6.5, 37° C., LC-MS; details: per diastereoisomer, st = stable; for half-life: rat, intestinal homogenate, pH 6.5, T1/2 Int. Hom.
[2] = Chemical stability: hydrolysis in 200 mM phosphate buffer, 37° C., LC-MS; details: per diastereoisomer, st = stable
cowpox virus = experiment: microbe, parasite or virus in culture; type: cell-based; details: read-out: IC50 Cow Pox
vaccinia virus = experiment: microbe, parasite or virus in culture; type: cell-based; details: read-out: IC50 Vaccinia
[3] = test system: human cytomegalovirus (HCMV); experiment: microbe, parasite or virus in culture; type: cell-based
KB cells = experiment: cells; type: cell-based; details: read-out: IC50 KB
HFF cells = experiment: cells; type: cell-based, human; details: read-out: IC50 HFF
herpes simplex 1 (HSV-1) = experiment: microbe, parasite or virus in culture; type: cell-based
[4] = Oral bioavailability / transport study in mice, plasma LC-MS; details: oral AUC / intravenous AUC, dose-adjusted, total HPMPA-containing species in plasma
[5] = test system: poxviruses (vaccinia and cowpox viruses); type: cell-based
[6] = pH 7.4, T1/2 Buffer pH 7.4, 200 mM phosphate buffer pH 7.4, 37° C.
[7] = Human alphaherpesvirus 1, read-out: IC50 HSV-1
[8] = Human betaherpesvirus 5, read-out: IC50 HCMV

For `COC(=O)[C@@H](N)Cc1ccc(OP2(=O)CO[C@@H](Cn3cnc4c(N)ncnc43)CO2)cc1` (single isomer, unassigned) [1a (S,R)], the half-life [1] was under 28 min.
For `COC(=O)[C@@H](N)Cc1ccc(OP2(=O)CO[C@@H](Cn3cnc4c(N)ncnc43)CO2)cc1` (single isomer, unassigned) [1a (S,S)], the “T1/2 Int. Hom.” value [1] was under 28 min.
`COC(=O)[C@H](Cc1ccc(OP2(=O)CO[C@@H](Cn3cnc4c(N)ncnc43)CO2)cc1)NC(=O)[C@@H](N)C(C)C` (single isomer, unassigned) [1f (S,R)] showed a half-life [1] of under 28 min.
In the case of `COC(=O)[C@H](Cc1ccc(OP2(=O)CO[C@@H](Cn3cnc4c(N)ncnc43)CO2)cc1)NC(=O)[C@@H](N)C(C)C` (single isomer, unassigned) [1f (S,S)], the half-life ([2]; pH 6.5, T1/2 Buffer pH 6.5, 200 mM phosphate buffer pH 6.5, 37° C.) was 67 min and the “T1/2 Int. Hom.” value [1] was under 28 min.
For `COC(=O)[C@@H](N)Cc1ccc(OP2(=O)CO[C@@H](Cn3ccc(N)nc3=O)CO2)cc1` (single isomer, unassigned) [2a (S,R)], the half-life [1] was under 30 min.
With `COC(=O)[C@@H](N)Cc1ccc(OP2(=O)CO[C@@H](Cn3ccc(N)nc3=O)CO2)cc1` (single isomer, unassigned) [2a (S,S)] the half-life [2, 6] was 19 min and the “T1/2 Int. Hom.” value [1] was under 30 min.
In the case of `COC(=O)[C@H](N)Cc1ccc(OP2(=O)CO[C@@H](Cn3ccc(N)nc3=O)CO2)cc1` (single isomer, unassigned) [2b (S,R)], the “T1/2 Int. Hom.” value [1] was 210 min.
With `COC(=O)[C@H](N)Cc1ccc(OP2(=O)CO[C@@H](Cn3ccc(N)nc3=O)CO2)cc1` (single isomer, unassigned) [2b (S,S)] the half-life [2, 6] was 21 min and the “T1/2 Int. Hom.” value [1] was 72 min.
With `CC(C)CNC(=O)[C@@H](N)Cc1ccc(OP2(=O)COC(Cn3cnc4c(N)ncnc43)CO2)cc1` (single isomer, unassigned) [(S,R)-1e] the pIC50 (cowpox virus) was 5.60, the pIC50 (vaccinia virus) was 6.00 and the “T1/2 Int. Hom.” value ([1]; listed as 1e (S,R)) was 630 min. It also gave a pIC50 ([3]; read-out: IC50 HCMV) of 6.26 and a pIC50 (KB cells) of under 4.00.
`CC(C)CNC(=O)[C@@H](N)Cc1ccc(OP2(=O)COC(Cn3cnc4c(N)ncnc43)CO2)cc1` (single isomer, unassigned) [(S,S)-1e] gave a pIC50 (HFF cells; Homo sapiens, HFF) of under 4.00, a pIC50 (cowpox virus; Cowpox virus, HFF) of 5.70 and a pIC50 (herpes simplex 1 (HSV-1); read-out: IC50 HSV-1) of 4.46. The pIC50 (vaccinia virus; Orthopoxvirus vaccinia, HFF) was 5.82, the “T1/2 Int. Hom.” value ([1]; listed as 1e (S,S)) was 114 min and the pIC50 ([3]; read-out: IC50 HCMV) was 5.89. The pIC50 (KB cells; Homo sapiens, KB, 48 h) was under 4.00.
With `CC(C)OC(=O)[C@@H](N)Cc1ccc(OP2(=O)CO[C@@H](Cn3ccc(N)nc3=O)CO2)cc1` (stereo partly drawn) [2c (S,R)] the “T1/2 Int. Hom.” value [1] was under 30 min.
With `CC(C)OC(=O)[C@@H](N)Cc1ccc(OP2(=O)CO[C@@H](Cn3ccc(N)nc3=O)CO2)cc1` (stereo partly drawn) [2c (S,S)] the “T1/2 Int. Hom.” value [1] was under 30 min.
In the case of `CC(C)(C)NC(=O)[C@H](N)Cc1ccc(OP2(=O)CO[C@@H](Cn3ccc(N)nc3=O)CO2)cc1` (stereo partly drawn) [2d (S,R)], the “T1/2 Int. Hom.” value [1] was 1732 min.
With `CC(C)(C)NC(=O)[C@H](N)Cc1ccc(OP2(=O)CO[C@@H](Cn3ccc(N)nc3=O)CO2)cc1` (stereo partly drawn) [2d (S,S)] the “T1/2 Int. Hom.” value [1] was 203 min.
Work on `Nc1nc2c(ncn2COCCO)c(=O)[nH]1` [ACV, Acyclovir, reference compound] yielded a pIC50 (herpes simplex 1 (HSV-1); [7]) of 6.22 and a pIC50 (herpes simplex 1 (HSV-1); read-out: IC50 HSV-1) of 6.15.
`Nc1ncnc2c1ncn2C[C@@H](CO)OCP(=O)(O)O` [Compound 1, (S)-9-(3hydroxy-2-phosphonyl-methoxypropyl)adenine, reference compound] gave a pIC50 (cowpox virus) of 5.40, a pIC50 (herpes simplex 1 (HSV-1); read-out: IC50 HSV-1) of 4.46 and a pIC50 (vaccinia virus) of 5.70. For the same molecule, the total oral bioavailability [4] was 5%, the pIC50 ([3]; read-out: IC50 HCMV) was 6.39 and the pIC50 (KB cells) was under 4.00.
Molecule `COC(=O)[C@@H](N)Cc1ccc(OP2(=O)CO[C@@H](Cn3cnc4c(N)ncnc43)CO2)cc1` (stereo partly drawn) [Compound 1a, Methyl(2S)-2-amino-3-(4-{[(5S)-5-[(6-amino-9H-purin-9-yl)methyl]-2-oxo-1,4,2λ^5-dioxaphosphinan-2-yl]oxy}phenyl)propanoate] has a pIC50 (HFF cells; Homo sapiens, HFF) of under 4.00, a pIC50 (cowpox virus; Cowpox virus, HFF) of 5.46 and a pIC50 (herpes simplex 1 (HSV-1); [7]) of 4.46. For the same molecule, the pIC50 (vaccinia virus; Orthopoxvirus vaccinia, HFF) was 5.52, the pIC50 [3, 8] was 6.35 and the pIC50 (KB cells; Homo sapiens, KB, 48 h) was under 4.00.
With `CC(C)CNC(=O)[C@@H](N)Cc1ccc(OP2(=O)COC(Cn3cnc4c(N)ncnc43)CO2)cc1` (stereo partly drawn) [Compound 1e, (2S)-2-Amino-3-[4-({5-[(6-amino-9H-purin-9-yl)methyl]-2-oxo-1,4,2λ^5-dioxaphosphinan-2-yl}oxy)phenyl]-N-(2-methylpropyl)propanamide] the pIC50 (HFF cells; Homo sapiens, HFF) was under 4.00, the pIC50 (cowpox virus; Cowpox virus, HFF) was 5.15 and the pIC50 (herpes simplex 1 (HSV-1); [7]) was 4.30. The pIC50 (vaccinia virus; Orthopoxvirus vaccinia, HFF) was 5.35, the pIC50 [3, 8] was 6.52 and the pIC50 (KB cells; Homo sapiens, KB, 48 h) was under 4.00.
`COC(=O)[C@H](Cc1ccc(OP2(=O)CO[C@@H](Cn3cnc4c(N)ncnc43)CO2)cc1)NC(=O)[C@@H](N)C(C)C` (stereo partly drawn) [Compound 1f, Methyl(2S)-2-[(2S)-2-amino-3-methylbutanamido]-3-[4-({(5S)-5-[(6-amino-9H-purin-9-yl)methyl]-2-oxo-1,4,2λ^5-dioxaphosphinan-2-yl}oxy)phenyl]propanoate] showed a pIC50 (HFF cells; Homo sapiens, HFF) of 4.00, a pIC50 (cowpox virus; Cowpox virus, HFF) of 5.10 and a pIC50 (herpes simplex 1 (HSV-1); [7]) of 4.46. The pIC50 (vaccinia virus; Orthopoxvirus vaccinia, HFF) was 5.40, the pIC50 [3, 8] was 6.52 and the pIC50 (KB cells; Homo sapiens, KB, 48 h) was under 4.00.
In the case of `Nc1ccn(C[C@@H](CO)OCP(=O)(O)O)c(=O)n1` [Compound 2, (S)-HPMPC, reference compound], the pIC50 (HFF cells; Homo sapiens, HFF) was 4.00, the pIC50 (cowpox virus; Cowpox virus, HFF) was 4.52 and the pIC50 (cowpox virus) was 4.82 and 4.70. For the same molecule, the pIC50 (vaccinia virus; Orthopoxvirus vaccinia, HFF) was 4.70, the pIC50 (vaccinia virus) was 4.82 and the pIC50 [3, 8] was 6.55.
`COC(=O)[C@@H](N)Cc1ccc(OP2(=O)CO[C@@H](Cn3ccc(N)nc3=O)CO2)cc1` (stereo partly drawn) [Compound 2a, Methyl-(2S)-2-amino-3-(4-{[(5S)-5-[(4-amino-2-oxo-2H-pyrimidin-1-yl)-methyl]-2-oxo-1,4,2λ^5-dioxaphosphinan-2-yl]oxy}phenyl)propanoate] gave a pIC50 (HFF cells; Homo sapiens, HFF) of under 4.00, a pIC50 (cowpox virus; Cowpox virus, HFF) of 4.30 and a pIC50 (herpes simplex 1 (HSV-1); [7]) of 4.60. For the same molecule, the pIC50 (vaccinia virus; Orthopoxvirus vaccinia, HFF) was 5.40, the pIC50 [3, 8] was 6.64 and the pIC50 (KB cells; Homo sapiens, KB, 48 h) was under 4.00.
Work on `COC(=O)[C@H](N)Cc1ccc(OP2(=O)CO[C@@H](Cn3ccc(N)nc3=O)CO2)cc1` (stereo partly drawn) [Compound 2b, Methyl(2R)-2-amino-3-(4-{[(5S)-5-[(4-amino-2-oxo-2H-pyrimidin-1-yl)-methyl]-2-oxo-1,4,2λ^5-dioxaphosphinan-2-yl]oxy}phenyl)propanoate] yielded a pIC50 (HFF cells; Homo sapiens, HFF) of under 4.00, a pIC50 (cowpox virus; Cowpox virus, HFF) of 4.46 and a pIC50 (herpes simplex 1 (HSV-1); [7]) of 4.46. It also gave a pIC50 (vaccinia virus; Orthopoxvirus vaccinia, HFF) of 4.60, a pIC50 [3, 8] of 6.70 and a pIC50 (KB cells; Homo sapiens, KB, 48 h) of under 4.00.
For `CC(C)OC(=O)[C@@H](N)Cc1ccc(OP2(=O)CO[C@@H](Cn3ccc(N)nc3=O)CO2)cc1` (stereo partly drawn) [Compound 2c], the pIC50 (HFF cells) was under 4.00, the pIC50 (cowpox virus) was 4.40 and the pIC50 (herpes simplex 1 (HSV-1); read-out: IC50 HSV-1) was 4.70. For the same molecule, the pIC50 (vaccinia virus) was 4.52, the pIC50 ([3]; read-out: IC50 HCMV) was 6.92 and the pIC50 (KB cells) was under 4.00.
Molecule `CCC(C)[C@H](N)C(=O)N[C@@H](Cc1ccc(OP2(=O)CO[C@@H](Cn3ccc(N)nc3=O)CO2)cc1)C(=O)OC` (stereo partly drawn) [Compound 2f, Methyl(2S)-3-[4-({(5S)-5-[(4-amino-2-oxo-1,2-dihydropyrimidin-1-yl)methyl]-2-oxo-1,4,2λ^5-dioxaphosphinan-2-yl}oxy)phenyl]-2-[(2S)-2-amino-3-ethylbutanamido]propanoate] has a pIC50 (HFF cells; Homo sapiens, HFF) of under 4.00, a pIC50 (cowpox virus; Cowpox virus, HFF) of 4.52 and a pIC50 (herpes simplex 1 (HSV-1); [7]) of 4.82. It also gave a pIC50 (vaccinia virus; Orthopoxvirus vaccinia, HFF) of 4.70, a pIC50 [3, 8] of over 7.00 and a pIC50 (KB cells; Homo sapiens, KB, 48 h) of under 4.00.
Work on `Nc1ncnc2c1ncn2C[C@H]1COP(=O)(O)CO1` [Compound 6, cHPMPA, reference compound] yielded a pIC50 (HFF cells; Homo sapiens, HFF) of 4.00, a pIC50 (cowpox virus; Cowpox virus, HFF) of 6.22 and a pIC50 (herpes simplex 1 (HSV-1); [7]) of 4.52. The pIC50 (vaccinia virus; Orthopoxvirus vaccinia, HFF) was 6.00, the pIC50 [3, 8] was 5.89 and the pIC50 (KB cells; Homo sapiens, KB, 48 h) was under 4.00.
Work on `CC(C)CNC(=O)[C@@H](N)Cc1ccc(OP(=O)(O)CO[C@H](CO)Cn2cnc3c(N)ncnc32)cc1` [Compound 8, 4-[(2S)-2-amino-2-[(2-methylpropyl)carbamoyl]ethyl]phenoxy({[(2S)-1-(6-amino-9H-purin-9-yl)-3-hydroxypropan-2-yl]oxy}methyl)phosphinic acid] yielded a pIC50 (HFF cells; Homo sapiens, HFF) of under 4.00, a pIC50 (cowpox virus; Cowpox virus, HFF) of 5.52 and a pIC50 (herpes simplex 1 (HSV-1); [7]) of 4.35. For the same molecule, the pIC50 (vaccinia virus; Orthopoxvirus vaccinia, HFF) was 6.30, the “T1/2 Int. Hom.” value [1] was “st” and the pIC50 [3, 8] was 6.54. The “activity against all these viruses” value [5] was “active” and the pIC50 (KB cells; Homo sapiens, KB, 48 h) was under 4.00.
For `Nc1nc(O)c2ncn(COC(CO)CO)c2n1` [DHPG, ganciclovir, reference compound], the pIC50 (HFF cells; Homo sapiens, HFF) was under 4.00 and the pIC50 [3, 8] was 5.62.
